Patent US8686224B2, “Plant defense signal peptides” (priority 2005, dated 2014)
Entries after “also recorded” stand apart in the source; their conditions may differ.

Key:
[1] = target: T1, 180 kD AtPep1-binding protein (AtPep1 receptor, At1g73080) (Arabidopsis thaliana, UniProt Q9SSL9); assay: Photoaffinity labeling with 125I-azido-Cys-AtPep1, competition; conditions: microsomal membranes of wild type and control SALK plants, preincubated with 2.5 nM AtPep1
T1 construct: endogenous in cells
T1 sequence (Q9SSL9 29-1123): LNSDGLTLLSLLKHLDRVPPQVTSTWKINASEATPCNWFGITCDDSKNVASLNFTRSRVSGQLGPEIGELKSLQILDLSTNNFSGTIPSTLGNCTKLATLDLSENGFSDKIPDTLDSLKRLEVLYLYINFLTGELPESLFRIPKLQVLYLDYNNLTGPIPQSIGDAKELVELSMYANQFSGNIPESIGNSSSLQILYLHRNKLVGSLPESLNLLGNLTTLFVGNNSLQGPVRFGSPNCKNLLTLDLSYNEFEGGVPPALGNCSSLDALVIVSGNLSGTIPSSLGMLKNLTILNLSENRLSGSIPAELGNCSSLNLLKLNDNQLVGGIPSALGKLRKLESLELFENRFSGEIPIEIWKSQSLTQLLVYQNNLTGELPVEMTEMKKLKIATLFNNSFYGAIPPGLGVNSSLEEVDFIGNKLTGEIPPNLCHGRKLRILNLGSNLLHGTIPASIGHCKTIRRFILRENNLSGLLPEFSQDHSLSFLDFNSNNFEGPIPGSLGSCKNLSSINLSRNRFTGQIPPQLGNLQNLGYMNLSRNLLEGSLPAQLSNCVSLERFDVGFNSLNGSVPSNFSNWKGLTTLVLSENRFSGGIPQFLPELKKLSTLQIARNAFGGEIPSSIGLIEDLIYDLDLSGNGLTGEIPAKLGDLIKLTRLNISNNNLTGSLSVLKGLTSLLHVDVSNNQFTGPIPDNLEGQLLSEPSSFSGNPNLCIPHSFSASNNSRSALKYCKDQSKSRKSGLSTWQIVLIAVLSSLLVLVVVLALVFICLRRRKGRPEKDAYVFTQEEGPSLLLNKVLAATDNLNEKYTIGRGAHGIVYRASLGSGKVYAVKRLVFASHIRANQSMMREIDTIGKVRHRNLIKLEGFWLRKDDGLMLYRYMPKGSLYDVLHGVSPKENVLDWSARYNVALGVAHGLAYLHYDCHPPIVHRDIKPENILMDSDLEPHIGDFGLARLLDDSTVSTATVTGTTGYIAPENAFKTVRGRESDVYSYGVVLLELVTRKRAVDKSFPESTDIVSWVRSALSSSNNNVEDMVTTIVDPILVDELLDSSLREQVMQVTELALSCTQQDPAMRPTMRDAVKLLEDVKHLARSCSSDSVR
Method: Photoaffinity labeling. To 1 mL of cultured cells in darkness was added ^125I-azido-Cys-AtPep1 (0.25 nM final concentration as described above) and the cells were shaken for 10 min on an orbital shaker (160 rpm) at room temperature. The cells were transferred to a 1.5 mL glass tube, centrifuged at 10,000×g and the sedimented cells were dispersed in 1 mL cold MS medium containing 3% sucrose and centrifuged as above. This wash was repeated twice. The cells were resuspended in 1 mL MS medium and irradiated with UV-B for 10 min on ice to photoactivate the azido group to effect the crosslinking. The cells were washed with 1 mL MS medium, centrifuged as above, and resuspended in 400 μL of 5% SDS. The cells were disrupted by boiling for 30 min, and the insoluble debris was removed by centrifugation at 10,000×g. Proteins in the clear supernatant were precipitated by adding 1.25 volumes of methanol/chloroform (vol/vol). […]
Microsomal fractions were prepared from one-month-old plants by differential centrifugation as previously described (Scheer and Ryan, Proc. Natl. Acad. Sci. 99:9585-9590, 2002). […] The membranes were incubated for 60 min at approximately 4° C., irradiated with UV-B for 15 min, separated by SDS-PAGE, dried and analyzed by radioautography to identify labeled proteins.

[2] = system: wild type tobacco suspension-cultured cells; assay: Medium alkalinization of wild type and GUS expressing tobacco cells; format: cell-based; conditions: wild type tobacco (b358 also GUS expressing) cells

## H-ATKVKAKQRGKEKVSSGRPGQHN-OH [AtPep1]
[1]
  photoaffinity labeled proteins after preincubation: absent
[2]
  alkalinization of the medium: no alkalinization was detected; also recorded: did not respond
